Test results taken from PubChem BioAssay (NCI).
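Where inhibition never reached the appropriate level, the endpoint shown equals the highest concentration tested. Otherwise, values were interpolated linearly from a five-concentration, 48-hour dose response in 96-well plates. TGI denotes the concentration required for complete inhibition of growth.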

Legend:
Assay in all cases: NCI tumour cell line growth inhibition, 48 h
[1] = tested on: 786-0 renal
[2] = tested on: A549 NSCLC
[3] = tested on: ACHN renal
[4] = tested on: BT-549 breast
[5] = tested on: CAKI-1 renal
[6] = tested on: CCRF-CEM leukemia
[7] = tested on: COLO 205 colon
[8] = tested on: DU-145 prostate
[9] = tested on: EKVX NSCLC
[10] = tested on: HCT-116 colon
[11] = tested on: HCT-15 colon
[12] = tested on: HL-60(TB) leukemia
[13] = tested on: HOP-62 NSCLC
[14] = tested on: HOP-92 NSCLC
[15] = tested on: HS 578T breast
[16] = tested on: HT29 colon
[17] = tested on: IGROV1 ovarian
[18] = tested on: K-562 leukemia
[19] = tested on: KM12 colon
[20] = tested on: LOX IMVI melanoma
[21] = tested on: M14 melanoma
[22] = tested on: MALME-3M melanoma
[23] = tested on: MDA-MB-231 breast
[24] = tested on: MDA-MB-435
[25] = tested on: MDA-N
[26] = tested on: MOLT-4 leukemia
[27] = tested on: NCI-H226 lung
[28] = tested on: NCI-H23 lung
[29] = tested on: NCI-H522 lung
[30] = tested on: NCI/ADR-RES ovarian
[31] = tested on: OVCAR-3 ovarian
[32] = tested on: OVCAR-4 ovarian
[33] = tested on: OVCAR-5 ovarian
[34] = tested on: OVCAR-8 ovarian
[35] = tested on: PC-3 prostate
[36] = tested on: RPMI-8226 leukemia
[37] = tested on: RXF 393 renal
[38] = tested on: SF-268 CNS
[39] = tested on: SF-295 CNS
[40] = tested on: SK-MEL-2 melanoma
[41] = tested on: SK-MEL-28 melanoma
[42] = tested on: SK-MEL-5 melanoma
[43] = tested on: SK-OV-3 ovarian
[44] = tested on: SN12C renal
[45] = tested on: SNB-19 CNS
[46] = tested on: SNB-75 CNS
[47] = tested on: SR leukemia
[48] = tested on: SW-620 colon
[49] = tested on: T-47D breast
[50] = tested on: TK-10 renal
[51] = tested on: U251 CNS
[52] = tested on: UACC-257 melanoma
[53] = tested on: UACC-62 melanoma
[54] = tested on: UO-31 renal
[55] = tested on: HCC-2998 colon
[56] = tested on: MCF7 breast
[57] = tested on: NCI-H460 lung
[58] = tested on: A498 renal
[59] = tested on: SF-539 CNS

For `Oc1ccc2ccccc2c1N=Nc1ccc(Cl)cc1`, the TGI [1] was greater than 100 µM, the TGI [2] was greater than 100 µM and the TGI [3] was greater than 100 µM. For the same compound, the TGI [4] was greater than 100 µM, the TGI [5] was greater than 100 µM and the TGI [6] was greater than 100 µM. The TGI [7] was greater than 100 µM, the TGI [8] was greater than 100 µM and the TGI [9] was greater than 100 µM. It also gave a TGI [10] greater than 100 µM, a TGI [11] greater than 100 µM and a TGI [12] greater than 100 µM. For the same compound, the TGI [13] was greater than 100 µM, the TGI [14] was greater than 100 µM and the TGI [15] was greater than 100 µM. For the same compound, the TGI [16] was greater than 100 µM, the TGI [17] was greater than 100 µM and the TGI [18] was greater than 100 µM. The TGI [19] was greater than 100 µM, the TGI [20] was 78.7 µM and the TGI [21] was greater than 100 µM. It also gave a TGI [22] greater than 100 µM, a TGI [23] greater than 100 µM and a TGI [24] greater than 100 µM. It also gave a TGI [25] greater than 100 µM, a TGI [26] greater than 100 µM and a TGI [27] greater than 100 µM. The TGI [28] was greater than 100 µM, the TGI [29] was greater than 100 µM and the TGI [30] was greater than 100 µM. For the same compound, the TGI [31] was greater than 100 µM, the TGI [32] was greater than 100 µM and the TGI [33] was greater than 100 µM. It also gave a TGI [34] greater than 100 µM, a TGI [35] greater than 100 µM and a TGI [36] greater than 100 µM. The TGI [37] was greater than 100 µM, the TGI [38] was greater than 100 µM and the TGI [39] was greater than 100 µM. For the same compound, the TGI [40] was greater than 100 µM, the TGI [41] was greater than 100 µM and the TGI [42] was greater than 100 µM. For the same compound, the TGI [43] was greater than 100 µM, the TGI [44] was greater than 100 µM and the TGI [45] was greater than 100 µM. It also gave a TGI [46] greater than 100 µM, a TGI [47] greater than 100 µM and a TGI [48] greater than 100 µM. It also gave a TGI [49] greater than 100 µM, a TGI [50] greater than 100 µM and a TGI [51] greater than 100 µM. The TGI [52] was greater than 100 µM, the TGI [53] was greater than 100 µM and the TGI [54] was greater than 100 µM.
Work on `CCC(=O)N1C(=O)C(CC)(CC)C(=O)N1C(=O)CC` yielded a TGI [1] greater than 100 µM, a TGI [2] greater than 100 µM and a TGI [3] greater than 100 µM. It also gave a TGI [4] greater than 100 µM, a TGI [5] greater than 100 µM and a TGI [6] greater than 100 µM. It also gave a TGI [7] greater than 100 µM, a TGI [8] greater than 100 µM and a TGI [9] greater than 100 µM. It also gave a TGI [55] greater than 100 µM, a TGI [10] greater than 100 µM and a TGI [11] greater than 100 µM. It also gave a TGI [12] greater than 100 µM, a TGI [13] greater than 100 µM and a TGI [15] greater than 100 µM. For the same compound, the TGI [16] was greater than 100 µM, the TGI [17] was greater than 100 µM and the TGI [18] was greater than 100 µM. The TGI [19] was greater than 100 µM, the TGI [21] was greater than 100 µM and the TGI [22] was greater than 100 µM. It also gave a TGI [56] greater than 100 µM, a TGI [23] greater than 100 µM and a TGI [24] greater than 100 µM. It also gave a TGI [25] greater than 100 µM, a TGI [26] greater than 100 µM and a TGI [27] greater than 100 µM. It also gave a TGI [28] greater than 100 µM, a TGI [57] greater than 100 µM and a TGI [29] greater than 100 µM. The TGI [30] was greater than 100 µM, the TGI [31] was greater than 100 µM and the TGI [32] was greater than 100 µM. For the same compound, the TGI [33] was greater than 100 µM, the TGI [34] was greater than 100 µM and the TGI [35] was greater than 100 µM. For the same compound, the TGI [36] was greater than 100 µM, the TGI [37] was greater than 100 µM and the TGI [38] was greater than 100 µM. It also gave a TGI [39] greater than 100 µM, a TGI [40] greater than 100 µM and a TGI [41] greater than 100 µM. It also gave a TGI [42] greater than 100 µM, a TGI [43] greater than 100 µM and a TGI [44] greater than 100 µM. The TGI [45] was greater than 100 µM, the TGI [46] was greater than 100 µM and the TGI [47] was greater than 100 µM. For the same compound, the TGI [48] was greater than 100 µM, the TGI [49] was greater than 100 µM and the TGI [50] was greater than 100 µM. The TGI [51] was greater than 100 µM, the TGI [52] was greater than 100 µM and the TGI [53] was greater than 100 µM. It also gave a TGI [54] greater than 100 µM.
For `CC(C)(C)OC(=O)n1c(Cl)c(C=O)c2ccccc21`, the TGI [1] was 46.6 µM, the TGI [58] was greater than 100 µM and the TGI [2] was greater than 100 µM. The TGI [3] was 52.9 µM, the TGI [4] was 52.5 µM and the TGI [5] was 35.4 µM. The TGI [6] was 79.4 µM, the TGI [7] was greater than 100 µM and the TGI [8] was 39.6 µM. It also gave a TGI [9] of 76.6 µM, a TGI [11] of 70.4 µM and a TGI [12] greater than 100 µM. For the same compound, the TGI [13] was 43 µM, the TGI [14] was 56.8 µM and the TGI [15] was greater than 100 µM. The TGI [16] was greater than 100 µM, the TGI [17] was greater than 100 µM and the TGI [18] was greater than 100 µM. For the same compound, the TGI [19] was 39.2 µM, the TGI [20] was 68.1 µM and the TGI [21] was 82.9 µM. It also gave a TGI [22] of 39.9 µM, a TGI [23] of 84.5 µM and a TGI [24] greater than 100 µM. The TGI [25] was greater than 100 µM, the TGI [26] was greater than 100 µM and the TGI [28] was 47 µM. The TGI [57] was 46.1 µM, the TGI [29] was greater than 100 µM and the TGI [30] was 58 µM. The TGI [31] was 40.8 µM, the TGI [32] was greater than 100 µM and the TGI [33] was 72.3 µM. The TGI [34] was greater than 100 µM, the TGI [35] was 64.6 µM and the TGI [36] was 44.3 µM. It also gave a TGI [38] of 36.2 µM, a TGI [39] greater than 100 µM and a TGI [59] of 89.1 µM. It also gave a TGI [40] of 96.4 µM, a TGI [41] greater than 100 µM and a TGI [42] greater than 100 µM. The TGI [43] was greater than 100 µM, the TGI [44] was 54.3 µM and the TGI [45] was greater than 100 µM. It also gave a TGI [46] greater than 100 µM, a TGI [47] greater than 100 µM and a TGI [48] greater than 100 µM. The TGI [49] was greater than 100 µM, the TGI [50] was 53.4 µM and the TGI [51] was greater than 100 µM. For the same compound, the TGI [52] was 67.3 µM, the TGI [53] was 43.3 µM and the TGI [54] was 41.3 µM.
Compound `OC(C1CCCCCCCCCC1)C(O)C1CCCCCCCCCC1` (stereo not given) has a TGI [1] greater than 100 µM, a TGI [2] greater than 100 µM and a TGI [3] greater than 100 µM. For the same compound, the TGI [4] was greater than 100 µM, the TGI [5] was greater than 100 µM and the TGI [6] was greater than 100 µM. The TGI [7] was greater than 100 µM, the TGI [8] was greater than 100 µM and the TGI [9] was greater than 100 µM. The TGI [55] was greater than 100 µM, the TGI [10] was greater than 100 µM and the TGI [11] was greater than 100 µM. The TGI [12] was greater than 100 µM, the TGI [13] was greater than 100 µM and the TGI [15] was greater than 100 µM. The TGI [16] was greater than 100 µM, the TGI [17] was greater than 100 µM and the TGI [18] was greater than 100 µM. The TGI [19] was greater than 100 µM, the TGI [20] was greater than 100 µM and the TGI [21] was greater than 100 µM. It also gave a TGI [22] greater than 100 µM, a TGI [56] greater than 100 µM and a TGI [23] greater than 100 µM. For the same compound, the TGI [24] was greater than 100 µM, the TGI [25] was greater than 100 µM and the TGI [26] was greater than 100 µM. For the same compound, the TGI [27] was greater than 100 µM, the TGI [28] was greater than 100 µM and the TGI [57] was greater than 100 µM. It also gave a TGI [29] greater than 100 µM, a TGI [30] greater than 100 µM and a TGI [31] greater than 100 µM. For the same compound, the TGI [32] was greater than 100 µM, the TGI [33] was greater than 100 µM and the TGI [34] was greater than 100 µM. The TGI [35] was greater than 100 µM, the TGI [36] was greater than 100 µM and the TGI [37] was greater than 100 µM. For the same compound, the TGI [38] was greater than 100 µM, the TGI [39] was greater than 100 µM and the TGI [59] was greater than 100 µM. For the same compound, the TGI [40] was greater than 100 µM, the TGI [41] was greater than 100 µM and the TGI [42] was greater than 100 µM. It also gave a TGI [43] greater than 100 µM, a TGI [44] greater than 100 µM and a TGI [45] greater than 100 µM. The TGI [46] was greater than 100 µM, the TGI [47] was greater than 100 µM and the TGI [48] was greater than 100 µM. It also gave a TGI [49] greater than 100 µM, a TGI [50] greater than 100 µM and a TGI [51] greater than 100 µM. For the same compound, the TGI [52] was greater than 100 µM, the TGI [53] was greater than 100 µM and the TGI [54] was greater than 100 µM.
